Columns and labels:
Assay type in all cases: cell-based
[1] = system: asthmatic primary differentiated human airway epithelia; experiment: Flow cytometric cell cycle analysis (7-AAD) of BrdU+ cells from wounded asthmatic epithelia; settings: Example 2, wounded asthmatic epithelia, 2 h pulses at -26, -2, +22, +46 h
Method: (§1) On arrival, the in vitro epithelia were washed with phosphate buffered saline (PBS) and the basal medium was replaced with proprietary defined medium supplied by the manufacturer. Cells were equilibrated at 37° C. and 5% CO2 for 16 h followed by medium replacement with identical proprietary medium lacking glucocorticoids and epidermal growth factor (EGF). This condition was maintained for an additional 22 h. Upon completion (i.e. −26 h on the experimental timeline shown in FIG. 1, intermittent glucocorticoid exposures began: Dexamethasone (DEX) (20 nM) or PBS vehicle (VEH) was added to the apical and basolateral epithelial surfaces for 2 h. At −24 h, the medium was replaced with glucocorticoid- and EGF-free medium. This two-hour DEX/VEH pulse was repeated every 24 h (i.e. at −2, +22, and +46 h) thereafter until cell harvest at +48 h.
An in vitro epithelial injury model that allows for the study of epithelial repair processes in the lung was adapted for use in this study. Briefly, at 0 h on the timeline in FIG. 1, epithelia were scraped in two perpendicular lines with a p1000 pipette tip and placed in bromodeoxyuridine (BrdU)-containing (10 μM) medium. BrdU-containing medium was changed at +24 h following the DEX/VEH pulse mentioned previously. Epithelia were incubated at 37° C. and 5% CO2 until +48 h. In some experiments, wounds were imaged daily (i.e. 0, +24, +48 h) using a 16× phase contrast objective lens and wound area was measured in triplicate by a single operator blinded to the culture conditions using ImageJ Software (Rasband. ImageJ. Bethesda, Md., USA: U. S. National Institutes of Health; 1997-2009). Contrast was enhanced equally in all images to improve wound visualization.
Epithelia were washed once with PBS and harvested at +48 h (FIG. 1) for analysis by flow cytometry. A single cell suspension was achieved by exposure for 5 minutes with trypsin-ethylenediaminetetraacetic acid (EDTA) solution (#T3924; Sigma-Aldrich, St. Louis, Mo.) followed by filtration through a 40 μm strainer. Cells were simultaneously labeled with the following according to the manufacturers' protocols: 1) Carboxyfluorescein FLICA Apoptosis Poly-Caspase Detection Kit (Immunochemistry Technologies, LLC, Bloomington, Minn.) and 2) APC BrdU Flow Kit containing 7-AAD (amino-actinomycin-D) (BD Biosciences, San Jose, Calif.). Flow cytometry data were generated on a FACSCalibur™ System (BD Biosciences). Samples were gated to study 7-AAD content in BrdU^+FLICA^− cells. Data were analyzed by means of the cell cycle analysis feature of FlowJo 7.6 (Tree Star, Inc., Ashland, Oreg.) using a Watson (Pragmatic) model with equal coefficients of variation for the G1/G0 and G2/M peaks
Human fully-differentiated (air-liquid interface) normal (n=3) and asthmatic (n=3) primary airway epithelia, lacking inflammatory cells, were cultured in glucocorticoid-free medium beginning at −48 h. The cells were pulsed with mitotic cell cycle synchrony-inducing (i.e. dexamethasone, simvastatin) compounds or vehicle for 2 h at −26, −2, +22, and +46 h. Cultures were mechanically scrape-wounded at 0 h and thereafter exposed continuously to bromodeoxyuridine (BrdU) to identify mitotically active cells.

[2] = system: normal primary differentiated human airway epithelia; experiment: Mechanical scrape-wound healing (wound area, ImageJ), normal epithelia; settings: 20 nM 2 h pulses every 24 h
Method: as §1
(§2) An in vitro epithelial injury model that allows for the study of epithelial repair processes in the lung was adapted for use in this study. […] In some experiments, wounds were imaged daily (i.e. 0, +24, +48 h) using a 16× phase contrast objective lens and wound area was measured in triplicate by a single operator blinded to the culture conditions using ImageJ Software (Rasband. ImageJ. Bethesda, Md., USA: U. S. National Institutes of Health; 1997-2009). […]

[3] = system: normal primary differentiated human airway epithelia; experiment: Flow cytometric cell cycle analysis (7-AAD) of BrdU+ cells from wounded normal epithelia; settings: with pulse DEX, +48 h
Method: (§3) On arrival, the in vitro epithelia were washed with phosphate buffered saline (PBS) and the basal medium was replaced with proprietary defined medium supplied by the manufacturer. Cells were equilibrated at 37° C. and 5% CO2 for 16 h followed by medium replacement with identical proprietary medium lacking glucocorticoids and epidermal growth factor (EGF). This condition was maintained for an additional 22 h. […]
as §2
Epithelia were washed once with PBS and harvested at +48 h (FIG. 1) for analysis by flow cytometry. […] Data were analyzed by means of the cell cycle analysis feature of FlowJo 7.6 (Tree Star, Inc., Ashland, Oreg.) using a Watson (Pragmatic) model with equal coefficients of variation for the G1/G0 and G2/M peaks

[4] = system: asthmatic primary differentiated human airway (bronchial) epithelia; experiment: BrdU flow cytometry of mitotically active cells after scrape-wounding, asthmatic epithelia; settings: wounded asthmatic epithelia, 20 nM 2 h pulses every 24 h, harvest +48 h, mean±SEM
Text: Normal (n=3) and asthmatic (n=6) primary differentiated human airway (i.e. bronchial) epithelia grown in 12-well plates on collagen-coated Transwell membrane inserts at an air-liquid interface were obtained commercially (#AIR-606 and #AIR-606-Asthma; MatTek Corporation, Ashland, Mass.). Donors underwent bronchoscopic brushing to acquire epithelial cells. Descriptive donor information provided by MatTek Corporation for the individuals from whom cells were obtained is shown in Table 1.
as §3, §2

[5] = system: asthmatic primary differentiated human airway epithelia; experiment: Mechanical scrape-wound healing (wound area, ImageJ), asthmatic epithelia; settings: 20 nM 2 h pulses every 24 h
Method: as §1, §2

| Structure (SMILES) | BrdU+ cells in G1/G0 [1] | BrdU+ cells in G2/M [1] | BrdU+ cells in S [1] | wound area decrease from 0 to +48 h [2] | BrdU+ cells in G1/G0 [3] | BrdU+ cells, % of total cells [4] | wound area decrease from 0 to +48 h [5] |
| --- | --- | --- | --- | --- | --- | --- | --- |
| CCC(C)(C)C(=O)O[C@H]1C[C@@H](C)C=C2C=C[C@H](C)[C@H](CC[C@@H]3C[C@@H](O)CC(=O)O3)[C@H]21 [simvastatin] | 75±6% | 14±3% | 11±4% |  |  |  |  |
| C[C@@H]1C[C@H]2[C@@H]3CCC4=CC(=O)C=C[C@]4(C)[C@@]3(F)[C@@H](O)C[C@]2(C)[C@@]1(O)C(=O)CO [DEX, Dexamethasone] | 72±5% | 20±4% | 8±2% | 86.8±5.4% | > 70% | 0.55±0.13% | 75.7±9% |
